Key:
Experiment in all cases: biochemical
Type in all cases: binding
[1] = target: T1, panel of 442 kinases (Homo sapiens, UniProt P00519, E255K); conditions: ABL1(E255K)-phosphorylated; for remaining activity at 1 µM: read-out: % of control at 1 µM
T1 construct: purchased Ambit Biosciences (scanMAXX KINOMEscan)

[2] = target: T2, panel of 442 kinases (Homo sapiens, UniProt P07948); conditions: kinase LYN; for remaining activity at 1 µM: read-out: % of control at 1 µM
T2 construct: purchased Ambit Biosciences (scanMAXX KINOMEscan)
T2 sequence (P07948 whole entry): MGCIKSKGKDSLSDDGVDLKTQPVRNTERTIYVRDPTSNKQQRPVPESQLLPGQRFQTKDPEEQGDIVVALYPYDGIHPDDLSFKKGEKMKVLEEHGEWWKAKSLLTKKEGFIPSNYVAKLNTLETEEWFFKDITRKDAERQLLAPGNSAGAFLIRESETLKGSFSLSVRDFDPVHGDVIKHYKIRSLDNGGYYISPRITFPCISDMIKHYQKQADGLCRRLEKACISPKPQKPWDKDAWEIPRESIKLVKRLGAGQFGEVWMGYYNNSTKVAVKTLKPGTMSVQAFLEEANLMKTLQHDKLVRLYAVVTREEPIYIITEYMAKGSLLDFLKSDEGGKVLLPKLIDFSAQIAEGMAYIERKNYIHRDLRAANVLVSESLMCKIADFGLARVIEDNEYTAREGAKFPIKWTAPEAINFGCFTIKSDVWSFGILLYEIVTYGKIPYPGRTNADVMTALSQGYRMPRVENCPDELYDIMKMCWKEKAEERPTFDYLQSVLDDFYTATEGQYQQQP

[3] = target: T3, panel of 442 kinases (Homo sapiens, UniProt Q8N5S9); conditions: CAMKK1; for remaining activity at 1 µM: read-out: % of control at 1 µM
T3 construct: purchased Ambit Biosciences (scanMAXX KINOMEscan)
T3 sequence (Q8N5S9 whole entry): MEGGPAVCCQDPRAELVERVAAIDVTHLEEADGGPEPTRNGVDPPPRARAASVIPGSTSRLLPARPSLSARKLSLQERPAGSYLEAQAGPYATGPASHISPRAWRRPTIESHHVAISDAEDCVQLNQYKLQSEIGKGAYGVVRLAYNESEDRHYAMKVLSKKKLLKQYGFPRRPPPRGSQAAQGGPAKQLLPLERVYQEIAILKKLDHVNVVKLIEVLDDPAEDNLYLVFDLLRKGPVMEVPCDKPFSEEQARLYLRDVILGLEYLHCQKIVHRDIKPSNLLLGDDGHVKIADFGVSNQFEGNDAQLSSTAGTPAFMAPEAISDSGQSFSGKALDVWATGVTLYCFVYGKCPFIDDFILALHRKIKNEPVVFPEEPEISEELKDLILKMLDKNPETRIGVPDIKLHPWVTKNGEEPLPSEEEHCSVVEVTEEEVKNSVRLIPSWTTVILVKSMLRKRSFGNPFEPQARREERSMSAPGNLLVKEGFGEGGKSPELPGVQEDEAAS

[4] = target: T4, panel of 442 kinases (Homo sapiens, UniProt P19784); conditions: CSNK2A2; for remaining activity at 1 µM: read-out: % of control at 1 µM
T4 construct: purchased Ambit Biosciences (scanMAXX KINOMEscan)
T4 sequence (P19784 whole entry): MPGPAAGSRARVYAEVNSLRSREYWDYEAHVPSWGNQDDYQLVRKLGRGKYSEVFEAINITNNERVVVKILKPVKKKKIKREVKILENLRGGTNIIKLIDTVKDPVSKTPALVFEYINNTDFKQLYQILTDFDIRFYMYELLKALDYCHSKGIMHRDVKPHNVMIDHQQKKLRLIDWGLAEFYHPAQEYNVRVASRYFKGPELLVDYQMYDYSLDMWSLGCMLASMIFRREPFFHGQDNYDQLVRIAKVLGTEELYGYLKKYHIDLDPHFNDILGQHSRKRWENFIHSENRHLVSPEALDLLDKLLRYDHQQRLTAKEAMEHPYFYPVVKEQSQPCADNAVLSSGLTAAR

[5] = target: T5, panel of 442 kinases (Homo sapiens, UniProt Q04912); conditions: kinase MST1R; for remaining activity at 1 µM: read-out: % of control at 1 µM
T5 construct: purchased Ambit Biosciences (scanMAXX KINOMEscan)
T5 sequence (Q04912 25-1400): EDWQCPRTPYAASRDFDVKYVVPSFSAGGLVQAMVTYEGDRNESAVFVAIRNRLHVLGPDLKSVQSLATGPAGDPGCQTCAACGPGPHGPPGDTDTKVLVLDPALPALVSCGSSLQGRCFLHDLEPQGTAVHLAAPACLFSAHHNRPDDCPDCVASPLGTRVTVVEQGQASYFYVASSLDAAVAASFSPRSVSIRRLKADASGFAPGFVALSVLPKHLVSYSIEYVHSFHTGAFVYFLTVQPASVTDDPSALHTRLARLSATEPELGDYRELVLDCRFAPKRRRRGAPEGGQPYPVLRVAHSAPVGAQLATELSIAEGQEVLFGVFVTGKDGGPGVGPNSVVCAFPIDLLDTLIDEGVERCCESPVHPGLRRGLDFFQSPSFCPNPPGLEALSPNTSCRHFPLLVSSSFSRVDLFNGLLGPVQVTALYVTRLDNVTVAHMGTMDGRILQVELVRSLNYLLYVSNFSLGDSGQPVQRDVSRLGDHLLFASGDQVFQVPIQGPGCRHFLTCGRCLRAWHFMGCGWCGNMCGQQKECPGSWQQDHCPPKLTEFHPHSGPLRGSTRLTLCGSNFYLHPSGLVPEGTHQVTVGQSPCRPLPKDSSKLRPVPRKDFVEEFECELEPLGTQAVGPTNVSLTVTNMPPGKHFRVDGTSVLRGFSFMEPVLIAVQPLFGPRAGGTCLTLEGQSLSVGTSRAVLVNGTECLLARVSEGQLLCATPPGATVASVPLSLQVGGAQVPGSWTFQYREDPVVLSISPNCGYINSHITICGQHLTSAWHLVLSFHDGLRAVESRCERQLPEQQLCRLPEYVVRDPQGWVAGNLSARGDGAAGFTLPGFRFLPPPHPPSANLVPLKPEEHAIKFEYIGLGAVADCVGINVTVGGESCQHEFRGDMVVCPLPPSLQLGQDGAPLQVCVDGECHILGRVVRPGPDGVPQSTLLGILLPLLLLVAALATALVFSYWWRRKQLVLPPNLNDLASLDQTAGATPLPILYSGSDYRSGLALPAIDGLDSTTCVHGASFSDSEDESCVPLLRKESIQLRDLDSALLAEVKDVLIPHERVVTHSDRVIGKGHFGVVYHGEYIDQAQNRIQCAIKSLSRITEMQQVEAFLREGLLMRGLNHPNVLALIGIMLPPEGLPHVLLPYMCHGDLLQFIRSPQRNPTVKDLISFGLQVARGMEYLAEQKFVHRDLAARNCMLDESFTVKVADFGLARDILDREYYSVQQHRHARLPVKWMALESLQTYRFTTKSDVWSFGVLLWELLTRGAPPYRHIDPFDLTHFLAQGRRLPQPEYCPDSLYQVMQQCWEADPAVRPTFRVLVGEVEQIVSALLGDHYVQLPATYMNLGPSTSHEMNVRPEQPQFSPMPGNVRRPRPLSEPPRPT

[6] = target: T6, panel of 442 kinases (Homo sapiens, UniProt O14578); conditions: CIT; for remaining activity at 1 µM: read-out: % of control at 1 µM
T6 construct: purchased Ambit Biosciences (scanMAXX KINOMEscan)
T6 sequence (O14578 whole entry): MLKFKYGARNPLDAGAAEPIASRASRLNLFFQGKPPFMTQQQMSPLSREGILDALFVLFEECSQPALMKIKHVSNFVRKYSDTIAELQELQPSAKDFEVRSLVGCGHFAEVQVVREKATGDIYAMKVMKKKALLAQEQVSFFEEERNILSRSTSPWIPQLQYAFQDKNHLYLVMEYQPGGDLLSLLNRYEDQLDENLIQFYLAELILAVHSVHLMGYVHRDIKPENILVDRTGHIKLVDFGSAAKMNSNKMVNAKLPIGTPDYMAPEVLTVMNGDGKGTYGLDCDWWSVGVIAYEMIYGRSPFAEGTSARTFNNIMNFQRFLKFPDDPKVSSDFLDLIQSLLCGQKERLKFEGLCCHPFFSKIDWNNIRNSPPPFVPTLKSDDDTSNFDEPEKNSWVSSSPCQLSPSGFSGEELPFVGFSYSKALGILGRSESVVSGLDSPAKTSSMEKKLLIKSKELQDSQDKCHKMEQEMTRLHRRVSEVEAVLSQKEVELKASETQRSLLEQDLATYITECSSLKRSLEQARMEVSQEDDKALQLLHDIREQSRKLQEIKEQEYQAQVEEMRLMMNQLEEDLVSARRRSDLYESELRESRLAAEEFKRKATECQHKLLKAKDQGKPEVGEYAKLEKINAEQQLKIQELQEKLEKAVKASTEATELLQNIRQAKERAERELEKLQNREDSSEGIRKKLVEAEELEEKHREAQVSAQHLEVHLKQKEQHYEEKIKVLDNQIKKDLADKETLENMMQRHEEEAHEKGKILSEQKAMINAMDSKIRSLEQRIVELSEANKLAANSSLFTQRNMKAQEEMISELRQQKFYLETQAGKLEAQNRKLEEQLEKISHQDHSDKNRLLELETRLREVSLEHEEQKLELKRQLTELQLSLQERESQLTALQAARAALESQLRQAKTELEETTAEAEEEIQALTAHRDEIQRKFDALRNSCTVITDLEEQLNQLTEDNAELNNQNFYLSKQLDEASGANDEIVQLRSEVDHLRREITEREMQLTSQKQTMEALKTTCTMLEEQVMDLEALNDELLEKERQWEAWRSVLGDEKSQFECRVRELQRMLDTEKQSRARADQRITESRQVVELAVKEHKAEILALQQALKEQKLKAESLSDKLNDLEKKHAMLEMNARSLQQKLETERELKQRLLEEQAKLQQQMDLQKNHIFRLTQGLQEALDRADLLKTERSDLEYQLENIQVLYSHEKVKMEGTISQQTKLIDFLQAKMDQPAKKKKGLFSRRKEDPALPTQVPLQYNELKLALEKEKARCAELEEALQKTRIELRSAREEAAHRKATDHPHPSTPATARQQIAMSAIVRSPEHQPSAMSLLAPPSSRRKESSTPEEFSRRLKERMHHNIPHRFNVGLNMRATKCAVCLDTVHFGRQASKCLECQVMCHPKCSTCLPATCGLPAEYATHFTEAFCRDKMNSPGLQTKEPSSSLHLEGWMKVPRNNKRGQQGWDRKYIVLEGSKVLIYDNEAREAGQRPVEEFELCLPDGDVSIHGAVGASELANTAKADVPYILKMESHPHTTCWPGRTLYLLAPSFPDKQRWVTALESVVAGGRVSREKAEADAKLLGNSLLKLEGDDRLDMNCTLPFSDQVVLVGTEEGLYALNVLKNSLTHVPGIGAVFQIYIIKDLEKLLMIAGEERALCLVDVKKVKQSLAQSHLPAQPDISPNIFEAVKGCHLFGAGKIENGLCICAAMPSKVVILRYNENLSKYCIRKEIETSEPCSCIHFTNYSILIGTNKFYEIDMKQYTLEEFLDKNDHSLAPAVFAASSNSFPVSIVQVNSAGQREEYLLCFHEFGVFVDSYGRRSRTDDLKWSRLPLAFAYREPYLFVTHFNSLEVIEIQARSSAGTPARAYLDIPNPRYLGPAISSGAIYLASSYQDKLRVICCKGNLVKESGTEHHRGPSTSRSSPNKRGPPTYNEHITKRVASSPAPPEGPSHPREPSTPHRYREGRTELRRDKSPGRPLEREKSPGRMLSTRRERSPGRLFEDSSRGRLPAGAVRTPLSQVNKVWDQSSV

[7] = target: T7, panel of 442 kinases (Homo sapiens, UniProt O43283); conditions: kinase LZK; for remaining activity at 1 µM: read-out: % of control at 1 µM
T7 construct: purchased Ambit Biosciences (scanMAXX KINOMEscan)
T7 sequence (O43283 1-966): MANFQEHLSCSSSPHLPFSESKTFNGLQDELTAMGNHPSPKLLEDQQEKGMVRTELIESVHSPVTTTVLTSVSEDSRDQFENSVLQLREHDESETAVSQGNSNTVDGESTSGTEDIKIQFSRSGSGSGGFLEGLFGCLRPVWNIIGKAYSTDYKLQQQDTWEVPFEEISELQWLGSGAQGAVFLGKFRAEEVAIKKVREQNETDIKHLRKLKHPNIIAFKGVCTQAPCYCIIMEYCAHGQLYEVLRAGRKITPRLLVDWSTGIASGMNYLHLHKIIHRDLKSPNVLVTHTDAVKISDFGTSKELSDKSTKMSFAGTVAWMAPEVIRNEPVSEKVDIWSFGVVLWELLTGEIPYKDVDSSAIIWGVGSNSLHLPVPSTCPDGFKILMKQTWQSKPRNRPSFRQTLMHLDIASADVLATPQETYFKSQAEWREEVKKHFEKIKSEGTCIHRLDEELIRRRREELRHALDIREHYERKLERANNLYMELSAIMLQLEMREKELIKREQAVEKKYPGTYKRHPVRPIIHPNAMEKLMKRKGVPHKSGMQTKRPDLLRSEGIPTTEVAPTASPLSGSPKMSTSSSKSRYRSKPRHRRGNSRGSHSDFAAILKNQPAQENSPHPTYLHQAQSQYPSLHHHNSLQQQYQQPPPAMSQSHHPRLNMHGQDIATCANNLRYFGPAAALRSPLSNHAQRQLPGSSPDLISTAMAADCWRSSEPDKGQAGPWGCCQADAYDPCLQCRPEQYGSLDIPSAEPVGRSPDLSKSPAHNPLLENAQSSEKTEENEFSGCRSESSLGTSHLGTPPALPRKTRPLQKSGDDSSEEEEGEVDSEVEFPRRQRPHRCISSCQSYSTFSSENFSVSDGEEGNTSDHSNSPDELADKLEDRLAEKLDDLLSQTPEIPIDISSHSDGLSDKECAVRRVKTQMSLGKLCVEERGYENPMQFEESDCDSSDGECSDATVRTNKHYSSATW

[8] = target: T8, panel of 442 kinases (Homo sapiens, UniProt Q09013); conditions: DMPK; for remaining activity at 1 µM: read-out: % of control at 1 µM
T8 construct: purchased Ambit Biosciences (scanMAXX KINOMEscan)
T8 sequence (Q09013 1-629): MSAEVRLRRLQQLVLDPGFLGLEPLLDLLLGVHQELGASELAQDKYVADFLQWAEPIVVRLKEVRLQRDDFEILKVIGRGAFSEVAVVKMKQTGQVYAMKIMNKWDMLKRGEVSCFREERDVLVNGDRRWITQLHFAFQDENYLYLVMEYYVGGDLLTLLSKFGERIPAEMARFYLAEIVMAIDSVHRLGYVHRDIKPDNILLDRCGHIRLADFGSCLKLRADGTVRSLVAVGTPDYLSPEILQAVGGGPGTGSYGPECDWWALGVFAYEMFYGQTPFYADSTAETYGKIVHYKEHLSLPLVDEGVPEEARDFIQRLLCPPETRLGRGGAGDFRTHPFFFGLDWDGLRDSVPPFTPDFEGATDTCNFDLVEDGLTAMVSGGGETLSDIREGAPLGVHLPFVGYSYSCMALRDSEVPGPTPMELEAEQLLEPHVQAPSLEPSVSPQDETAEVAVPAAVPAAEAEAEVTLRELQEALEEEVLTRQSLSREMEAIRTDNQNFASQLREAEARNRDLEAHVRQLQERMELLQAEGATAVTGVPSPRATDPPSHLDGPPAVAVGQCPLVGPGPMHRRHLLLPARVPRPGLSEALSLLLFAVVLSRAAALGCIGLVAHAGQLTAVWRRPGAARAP

[9] = 10 µM, read-out: % of control at 10 µM

SMILES | remaining activity at 1 µM [1] [%] | remaining activity at 10 µM [1, 9] [%] | remaining activity at 1 µM [2] [%] | remaining activity at 10 µM [2, 9] [%] | remaining activity at 1 µM [3] [%] | remaining activity at 10 µM [3, 9] [%] | remaining activity at 1 µM [4] [%] | remaining activity at 10 µM [4, 9] [%] | remaining activity at 1 µM [5] [%] | remaining activity at 10 µM [5, 9] [%] | remaining activity at 1 µM [6] [%] | remaining activity at 10 µM [6, 9] [%] | remaining activity at 1 µM [7] [%] | remaining activity at 10 µM [7, 9] [%] | remaining activity at 1 µM [8] [%] | remaining activity at 10 µM [8, 9] [%]
Nc1cc(C(F)(F)F)c(-c2cc(N3CCOCC3)nc(N3CCOCC3)n2)cn1 [Buparlisib] | 74 | 96 | 84 | 100 | 100 | 100 | 84 | 75 | 74 | 100 | 100 | 100 | 81 | 98 | 79 | 83
Cn1c(=O)n(-c2ccc(C(C)(C)C#N)cc2)c2c3cc(-c4cnc5ccccc5c4)ccc3ncc21 [Dactolisib, 2-methyl-2-[4-(3-methyl-2-oxo-8-quinolin-3-yl-2,3-dihydroimidazo[4,5-c]quinolin-1-yl)-phenyl] propionitrile] | 79 | – | 87 | – | 79 | – | 99 | – | 60 | – | 65 | – | 100 | – | 88 | –
COc1ncc(-c2ccc3nccc(-c4ccnnc4)c3c2)cc1NS(=O)(=O)c1ccc(F)cc1F [Omipalisib] | 95 | – | 100 | – | 100 | – | 75 | – | 95 | – | 100 | – | 100 | – | 100 | –
FC(F)c1nc2ccccc2n1-c1nc(N2CCOCC2)nc(N2CCOCC2)n1 [ZSTK474, 2-(difluoromethyl)-1-[4,6-di(4-morpholinyl)-1,3,5-triazin-2-yl]-1H-benzimidazole] | 100 | – | 100 | – | 100 | – | 88 | – | 92 | – | 100 | – | 100 | – | 100 | –
